{"source": "patent US8426463B2", "about": "“[((1R,2S,5R)-2-isopropyl-5-methyl-cyclohexanecarbonyl)-amino]-acetic acid isopropyl ester and related compounds and their use in therapy” (priority 2011, dated 2013)", "key": {"[1]": {"tested_on": "Salmonella typhimurium tester strain TA1535", "experiment": "Ames test in TA1535 with and without S9-mix (Notox)"}, "[2]": {"tested_on": "philtrum skin (keratinized stratified epithelium)", "experiment": "Philtrum assay: duration of cooling on keratinized stratified epithelium", "format": "in vivo, human", "conditions": "applied to the philtrum skin at 5 mg/mL in Aquaphor ointment", "from_the_text": "Bioassay on Keratinized Stratified Epithelium: Philtrum Assay\nThe philtrum is the midline groove above the border of the upper lip. The site of drug testing was the skin above the upper lip (above the vermilion border of the lips), on the philtrum, lateral to the philtrum until the nasolabial folds, and sometimes on the lower nostrils (subnasale). This part of the face is known to be densely innervated with cool/cold receptors, second only to the surfaces of the eyeball and anogenitalia. It is also known from the scientific literature that the area around the lips has a high density of “cold spots” (see, e.g., Dhaka et al., “Visualizing cold spots: TRPM8-expressing sensory neurons and their projections”, J. Neuroscience, Vol. 28, pp. 566-575, 2008).\nTo test for anti-nociceptive activity, the test substance is first dissolved (5 mg/mL) in an ointment (Aquaphor®, which is 41% petrolatum, and the rest mineral oil, ceresin and lanolin alcohol) and singly applied (40 to 70 mg) onto the philtrum skin surface using a plastic stick.\nAt this locus, cool and cold sensations in the skin may be experienced and rated for time of onset and intensity. The intensity of the subjective skin sensation is rated as 0, 1, 2 or 3 with: 0 as no change; 1 as slight coolness, or cold; 2 as clear-cut signal of coolness or cold; and 3 as robust cooling or cold. The intervals for recording are 5 to 10 minutes, until two successive zeroes are obtained. The onset of drug action is taken as the time to reach 2 units of coolness intensity, and offset of drug action is the time when coolness intensity drops below 2, after previously surpassing 2 units. The duration of cooling action is defined as the offset time minus the onset time."}, "cough": {"tested_on": "cough", "experiment": "Study 5: ODT in a smoker with chili pepper induced coughing fit", "format": "in vivo, human", "conditions": "two ODT tablets (2.5 mg each); one subject", "method": "A venture capitalist lived a stress-filled life and smoked two packs of cigarettes per day. […] They tried the ODT containing 2.5 mg of Gly-O-iPr and said that it felt great, but they were afraid that if they used it, they would smoke more. Later that evening, they went to a banquet of Northern Chinese cuisine and they started coughing when they ate a piece of fish that was heavily spiced with chili peppers. Everyone at the dinner table was alarmed by their coughing fit which was quite intense and made their face turn bright red."}}}
{"smiles": "CC(C)OC(=O)CNC(=O)[C@@H]1C[C@H](C)CC[C@H]1C(C)C", "note": "[Gly-O-iPr, [((1R,2S,5R)-2-isopropyl-5-methyl-cyclohexanecarbonyl)-amino]-acetic acid isopropyl ester]", "values": [{"measurement": "mutagenic activity, conclusion", "setting": "[1]; TA1535, 3 to 5000 μg/plate, absence and presence of S9-mix", "result": "not mutagenic"}, {"measurement": "bacterial background lawn", "setting": "[1]; any of the concentrations tested (3 to 5000 μg/plate)", "result": "not reduced"}, {"measurement": "precipitation on the plates", "setting": "[1]; top dose of 5000 μg/plate, dissolved in DMSO", "result": "did not precipitate"}, {"measurement": "Keratinized Stratified Epithelia Philtrum Skin (min), duration of cooling", "setting": "[2]", "result": 27, "unit": "min"}, {"measurement": "effect on coughing fit", "setting": "cough", "result": "the cough stopped within a few minutes"}]}
